Results as given in PMC8421423, “Cellular model system to dissect the isoform-selectivity of Akt inhibitors” (Nature Communications, 2021).
Values joined by “and” are separate entries in the source; they are usually repeats but may differ in a detail not shown here. Identical values can stand only once. Like-named read-outs stand apart in the source and are kept apart here.

Columns and labels:
Akt1 [1] = molecular target: T1, Akt1 (Homo sapiens, UniProt P31749); assay: STK HTRF KinEASE activity-based assay (IC50)
Akt3 [2] = molecular target: T2, Akt3 (Homo sapiens, UniProt Q9Y243); assay: STK HTRF KinEASE activity-based assay (IC50)
Procedure: The biochemical half maximal inhibitory concentrations (IC50) were determined with the STK HTRF KinEASE assay (Cisbio) according to the manufactor’s instructions. Briefly: 5 µL Kinase solution and 2.5 µL inhibitor solution (8% DMSO in HTRF buffer) were incubated for 1 h before the reaction was started by addition of 2.5 µL starting solution containing ATP and substrate peptide. […] After reaction completion (Akt1: 60 min, Akt2: 20 min, Akt3: 15 min), 10 µL of stop solution were added. […] The quotient of both intensities were recorded at eight different inhibitor concentrations and data fit to a Hill 4-parameter equation with Quattro software suite (Quattro Research GmbH, Martinsried, Germany). Each reaction was performed in duplicates and at least three independent determinations of each IC50 were made.

Ba/F3^myr-Akt1 cells = assay: CellTiter-Glo cell viability assay; conditions: for cell viability: CTG
Procedure: On day 0, cells were plated into white 384-well cell culture plates (Greiner Bio-One) using a Multidrop reagent dispenser (Thermo Fisher Scientific) at cell numbers that ensure linear and optimal luminescent signal intensity (Ba/F3myr-Akt1: 600 cells/well, Ba/F3myr-Akt2: 800 cells/well, Ba/F3myr-Akt3: 800 cells/well). […] Cell viability was analyzed on day 4 using the CellTiter-Glo Assay (Promega) as per the manufacturer’s instructions. […] All experimental points were measured in duplicates for each plate and were replicated in at least three plates.

Akt2 [3] = molecular target: T3, Akt2 (Homo sapiens, UniProt P31751); assay: STK HTRF KinEASE activity-based assay (IC50)
pAkt2 = assay: Western blot analysis, PANC1 cells; type: cell-based, human; conditions: PANC1, 24-h treatment
Procedure: Cells were seeded into six-well tissue culture plates (Sarstedt) (BaF3 myr-Akt1/2/3: 10^6 cells/well, PANC1: 250.000 cells/well). […] Cell lysis was initiated by addition of 100 μL RIPA buffer (Cell Signaling Technology) per well supplemented with phosphatase and protease inhibitor cocktails (Sigma) followed by incubation on ice for 20 min. Cells were then harvested by scraping (PANC1) or centrifugation (BaF3). Whole cell lysates were cleared by centrifugation at 14,000×g/4 °C for 10 min and transferred into fresh, pre-cooled microcentrifuge tubes. Protein concentrations were determined using the Pierce BCA protein assay (Thermo) as per manufacturer’s instructions. Equal amounts of protein were separated by SDS-PAGE and transferred to Immobilon-FL PVDF membranes (Merck Millipore) using Pierce™ 1-step transfer buffer (Thermo) and the Pierce™ Power Blotter (Thermo). Membranes were washed for 5 min with ddH2O, blocked with Intercept®Blocking Buffer TBS (Li-Cor) for 1 h at room temperature, and then incubated with primary antibodies diluted in Intercept®Blocking Buffer TBS overnight at 4 °C with gentle agitation. On the next day, the membranes were washed three times with TBS-T (50 mM Tris, 150 mM NaCl, 0.05 % Tween 20, pH 7.4) for 5 min before being incubated with secondary antibodies diluted in Intercept®Blocking Buffer TBS for 1 h at room temperature with gentle agitation. Finally, the membranes were washed three times for 5 min with TBS-T and then scanned using an Odyssey®CLx imaging system (Li-Cor).

Akt2 [4] = molecular target: T3, Akt2; assay: Cellular thermal shift assay (CETSA) in PANC1 cells; type: cell-based; set-up: purchased Thermo Fisher Scientific #PV3184; conditions: for tAkt2 %: CETSA PANC1, 1 µM
Procedure: (§1) Cells were seeded into 100 mm tissue culture plates (Sarstedt) (PANC1: 10^6 cells). After 24 h incubation, cells were treated with 1 µM of inhibitors or DMSO and were incubated for 4.5 h. Cells were washed twice with ice-cold PBS and then suspended in 1 mL PBS. Cells were collected and separated into equal volumes (100 µL). The aliquots were treated individually with different temperatures for 3 min, followed by a 3 min incubation at room temperature. Cell lysis was initiated by adding 100 µL RIPA buffer and 2 freeze-thaw cycles in liquid nitrogen. The lysates were centrifuged at 21,130×g for 20 min at room temperature. The supernatants were transferred into fresh, pre-cooled microcentrifuge tubes, and analyzed by western blot analysis as described above.

Ba/F3^myr-Akt3 cells = assay: CellTiter-Glo cell viability assay; conditions: for cell viability: CTG
Akt1 [5] = molecular target: T1, Akt1; assay: Cellular thermal shift assay (CETSA) in PANC1 cells; type: cell-based; set-up: purchased ProQinase #1379-0000-2; conditions: CETSA PANC1, 1 µM
Procedure: as §1

[6] = CellTiter-Glo cell viability assay; type: cell-based, murine; conditions: mouse, parental Ba/F3 cells, CTG, parental, single replicates
parental Ba/F3 cells = assay: CellTiter-Glo cell viability assay; type: cell-based, murine; conditions: for cell viability: CTG, parental
Ba/F3^myr-Akt2 cells = assay: CellTiter-Glo cell viability assay; conditions: for cell viability: CTG
Akt3 [7] = molecular target: T2, Akt3; assay: Cellular thermal shift assay (CETSA) in PANC1 cells; type: cell-based; set-up: purchased ProQinase #1578-0000-1; conditions: CETSA PANC1, 1 µM
Procedure: as §1

[8] = cell viability assay Ba/F3 myr-Akt cells, log units

T3 sequence (P31751 whole entry): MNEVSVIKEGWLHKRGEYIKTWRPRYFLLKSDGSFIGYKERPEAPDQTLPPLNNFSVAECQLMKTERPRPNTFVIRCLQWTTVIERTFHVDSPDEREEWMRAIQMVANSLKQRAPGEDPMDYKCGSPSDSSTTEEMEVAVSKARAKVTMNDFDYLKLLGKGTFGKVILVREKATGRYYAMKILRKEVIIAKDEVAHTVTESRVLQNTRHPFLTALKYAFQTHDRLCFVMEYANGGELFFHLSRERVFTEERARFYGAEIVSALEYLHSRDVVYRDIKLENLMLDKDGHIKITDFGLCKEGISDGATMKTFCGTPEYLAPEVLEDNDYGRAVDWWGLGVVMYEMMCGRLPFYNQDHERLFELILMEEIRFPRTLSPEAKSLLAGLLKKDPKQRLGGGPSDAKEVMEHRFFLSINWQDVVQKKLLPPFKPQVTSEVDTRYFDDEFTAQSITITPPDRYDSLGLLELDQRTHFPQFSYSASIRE
T1 sequence (P31749 whole entry): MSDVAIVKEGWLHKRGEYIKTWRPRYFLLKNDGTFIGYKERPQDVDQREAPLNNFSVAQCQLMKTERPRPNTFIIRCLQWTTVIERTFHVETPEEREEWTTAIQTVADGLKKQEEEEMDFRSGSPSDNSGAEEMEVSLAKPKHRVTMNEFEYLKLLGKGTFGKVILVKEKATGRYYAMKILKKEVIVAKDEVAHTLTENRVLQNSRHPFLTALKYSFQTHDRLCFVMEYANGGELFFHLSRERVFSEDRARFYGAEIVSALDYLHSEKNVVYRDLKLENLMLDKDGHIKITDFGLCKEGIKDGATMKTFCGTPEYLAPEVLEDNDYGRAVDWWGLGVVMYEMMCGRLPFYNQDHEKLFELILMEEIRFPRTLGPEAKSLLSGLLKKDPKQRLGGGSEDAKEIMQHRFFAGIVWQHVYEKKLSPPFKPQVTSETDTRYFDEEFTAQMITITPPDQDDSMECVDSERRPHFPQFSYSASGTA
T2 sequence (Q9Y243 whole entry): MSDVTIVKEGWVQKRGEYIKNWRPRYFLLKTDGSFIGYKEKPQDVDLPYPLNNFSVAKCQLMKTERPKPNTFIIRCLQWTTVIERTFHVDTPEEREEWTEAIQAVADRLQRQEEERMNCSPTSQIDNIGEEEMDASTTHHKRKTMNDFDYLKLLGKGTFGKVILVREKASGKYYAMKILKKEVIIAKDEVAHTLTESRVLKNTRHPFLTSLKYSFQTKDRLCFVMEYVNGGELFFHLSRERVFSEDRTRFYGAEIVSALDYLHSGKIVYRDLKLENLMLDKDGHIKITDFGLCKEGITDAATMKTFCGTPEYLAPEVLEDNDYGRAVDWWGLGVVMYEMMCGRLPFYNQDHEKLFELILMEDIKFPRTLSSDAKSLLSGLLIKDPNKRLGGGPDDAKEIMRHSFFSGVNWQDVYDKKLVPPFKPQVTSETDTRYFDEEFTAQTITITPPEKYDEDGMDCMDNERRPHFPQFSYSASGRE

C=CC(=O)Nc1ccc2[nH]c(=O)n(C3CCN(Cc4ccc(-c5ncc(Cc6cn[nH]c6)cc5-c5ccccc5)cc4)CC3)c2c1 [compound 14]
IC50 (Akt1 [1]; HTRF IC50 Akt1, Mean, mean of replicates): 527 nM
IC50 (Akt1 [1]; HTRF IC50 Akt1, individual determinations, single replicates): 543 nM and 509 nM and 531 nM
IC50 (Akt1 [1]; IC50 Akt1, HTRF, ATP at KM, 1 h preincubation): 527 ± 14 nM
Log ratio IC50 [Akt] / IC50 [Akt], Akt1 / Akt2 (Akt1 [1]; biochemical activity based assay, log units): 1.35
IC50 (Akt3 [2]; HTRF IC50 Akt3, Mean, mean of replicates): 356 nM
IC50 (Akt3 [2]; HTRF IC50 Akt3, individual determinations, single replicates): 231 nM and 426 nM and 410 nM
IC50 (Akt3 [2]; IC50 Akt3, HTRF, ATP at KM, 1 h preincubation): 356 ± 88 nM
cell viability (Ba/F3^myr-Akt1 cells; myr-Akt1, 0.1 nM, single replicates, 0.0001 µM): 103.7 % of control and 102.7 % of control
cell viability (Ba/F3^myr-Akt1 cells; myr-Akt1, 5000 nM, single replicates, 5 µM): 79.7 % of control and 82.2 % of control
EC50 (Ba/F3^myr-Akt1 cells; Mus musculus, read-out: CTG BaF3myr-Akt1, Mean, mean of replicates): 7560 nM
EC50 (Ba/F3^myr-Akt1 cells; Mus musculus, read-out: CTG BaF3myr-Akt1, individual determinations, single replicates): 6920 nM
viability at 0.0001 µM (Ba/F3^myr-Akt1 cells; Mus musculus, read-out: cell viability, CTG, myr-Akt1, 0.1 nM, single replicates): 100%
viability at 5 µM (Ba/F3^myr-Akt1 cells; Mus musculus, read-out: cell viability, CTG, myr-Akt1, 5000 nM, single replicates): 71.9%
Log ratio EC50 [Akt] / EC50 [Akt], Akt1 / Akt2 (Ba/F3^myr-Akt1 cells; [8]): 1.15
EC50 (Ba/F3^myr-Akt1 cells; read-out: CTG BaF3myr-Akt1, individual determinations, single replicates): 7890 nM and 7860 nM
IC50 (Akt2 [3]; HTRF IC50 Akt2, Mean, mean of replicates): 23.9 nM
IC50 (Akt2 [3]; HTRF IC50 Akt2, individual determinations, single replicates): 21.3 nM and 30 nM and 19.2 nM and 20.5 nM
IC50 (Akt2 [3]; IC50 Akt2, HTRF, ATP at KM, 1 h preincubation): 23 ± 4 nM
pAkt2 level (immunoblot) (pAkt2): efficient downregulation of Akt2 phosphorylation
tAkt2 % (Akt2 [4]; temperature 39.9): 100.00%
tAkt2 % (Akt2 [4]; temperature 43.5): 102.39%
tAkt2 % (Akt2 [4]; temperature 48.4): 91.99%
tAkt2 % (Akt2 [4]; temperature 53.8): 80.16%
tAkt2 % (Akt2 [4]; temperature 58.1): 72.88%
tAkt2 % (Akt2 [4]; temperature 61.4): 43.24%
tAkt2 % (Akt2 [4]; temperature 65.6): 13.13%
tAkt2 % (Akt2 [4]; temperature 70.9): 8.83%
tAkt2 % (Akt2 [4]; temperature 76): 2.38%
tAkt2 % (Akt2 [4]; temperature 79.9): 0.00%
thermal stabilization of Akt2 (CETSA, in words) (Akt2 [4]; PANC1, 1 µM): significant thermal stabilization of Akt2
cell viability (Ba/F3^myr-Akt3 cells; myr-Akt3, 0.1 nM, single replicates, 0.0001 µM): 114.7 % of control and 87.0 % of control and 100.0 % of control
cell viability (Ba/F3^myr-Akt3 cells; myr-Akt3, 5000 nM, single replicates, 5 µM): 35.1 % of control and 52.3 % of control and 67.7 % of control
EC50 (Ba/F3^myr-Akt3 cells; Mus musculus, read-out: CTG BaF3myr-Akt3, Mean, mean of replicates): 4470 nM
EC50 (Ba/F3^myr-Akt3 cells; Mus musculus, read-out: CTG BaF3myr-Akt3, individual determinations, single replicates): 4320 nM
Log ratio EC50 [Akt] / EC50 [Akt], Akt3 / Akt2 (Ba/F3^myr-Akt3 cells; [8]): -0.93
EC50 (Ba/F3^myr-Akt3 cells; read-out: CTG BaF3myr-Akt3, individual determinations, single replicates): 4620 nM and 4470 nM
tAkt1 % (Akt1 [5]; temperature 39.9): 100.00%
tAkt1 % (Akt1 [5]; temperature 43.5): 52.07%
tAkt1 % (Akt1 [5]; temperature 48.4): 40.09%
tAkt1 % (Akt1 [5]; temperature 53.8): 35.60%
tAkt1 % (Akt1 [5]; temperature 58.1): 20.87%
tAkt1 % (Akt1 [5]; temperature 61.4): 22.87%
tAkt1 % (Akt1 [5]; temperature 65.6): 16.43%
tAkt1 % (Akt1 [5]; temperature 70.9): 3.87%
tAkt1 % (Akt1 [5]; temperature 76): 1.25%
tAkt1 % (Akt1 [5]; temperature 79.9): 0.00%
viability at 3 days, 0.0001 µM ([6]; 0.1 nM, read-out: cell viability): 101%
viability at 3 days, 5 µM ([6]; 5000 nM): 105%
cell viability (parental Ba/F3 cells; 0.1 nM, single replicates, 0.0001 µM): 100.0 % of control and 99.0 % of control
cell viability (parental Ba/F3 cells; 5000 nM, single replicates, 5 µM): 99.0 % of control and 97.0 % of control
EC50 (parental Ba/F3 cells; Mus musculus, BaF3, parental cells, mean of replicates, read-out: CTG BaF3, Mean): 8640 nM
EC50 (parental Ba/F3 cells; Mus musculus, BaF3, parental cells, single replicates, read-out: CTG BaF3, individual determinations): 8400 nM
EC50 (parental Ba/F3 cells; parental cells, single replicates, read-out: CTG BaF3, individual determinations): 7670 nM and 9860 nM
cell viability (Ba/F3^myr-Akt2 cells; myr-Akt2, 0.1 nM, single replicates, 0.0001 µM): 101.1 % of control and 98.7 % of control
cell viability (Ba/F3^myr-Akt2 cells; myr-Akt2, 5000 nM, single replicates, 5 µM): 0.2 % of control and 0.55 % of control and 2.5 % of control
EC50 (Ba/F3^myr-Akt2 cells; Mus musculus, read-out: CTG BaF3myr-Akt2, Mean, mean of replicates): 529 nM
viability at 0.0001 µM (Ba/F3^myr-Akt2 cells; Mus musculus, read-out: cell viability, CTG, myr-Akt2, 0.1 nM, single replicates): 104%
EC50 (Ba/F3^myr-Akt2 cells; read-out: CTG BaF3myr-Akt2, individual determinations, single replicates): 932 nM and 277 nM and 378 nM
tAkt3 % (Akt3 [7]; temperature 39.9): 100.00%
tAkt3 % (Akt3 [7]; temperature 43.5): 108.88%
tAkt3 % (Akt3 [7]; temperature 48.4): 31.40%
tAkt3 % (Akt3 [7]; temperature 53.8): 28.60%
tAkt3 % (Akt3 [7]; temperature 58.1): 24.86%
tAkt3 % (Akt3 [7]; temperature 61.4): 22.71%
tAkt3 % (Akt3 [7]; temperature 65.6): 8.41%
tAkt3 % (Akt3 [7]; temperature 70.9): 4.62%
tAkt3 % (Akt3 [7]; temperature 76): 1.45%
tAkt3 % (Akt3 [7]; temperature 79.9): 0.00%
